Molecules are shown by their SMILES.

Experimental findings from US20030199515A1, “Method for the preparation of crystalline tetrahydrobenzothiepines” (G.D. SEARLE, LLC, priority 2001, published 2003) are described below.

This data set can be described thus: Water uptake experiments (Dynamic Vapor Sorption water sorption/desorption isotherms). In kind it is physicochemical. As to conditions: for hygroscopicity (in words): crystalline form. Here is the method:
Water sorption experiments are performed on a Dynamic Vapor Sorption (DVS) apparatus (DVS-1000 manufactured by Surface Measurements Systems, Inc.). Experiments are performed at 25° C. by initially drying the material of interest (about 10 mg sample) from 30% relative humidity (RH) (ambient room condition) to about […] in a stepwise fashion (10% RH step) by purging with dry nitrogen until no further weight change was observed. The samples are then exposed to a stepwise (10% RH steps) increase in RH from about 0 to about 90% RH. Each successive step is initiated when the change in weight over time at the relative humidity was less than 0.0003% ((dm/dt)/m0×100, where m is mass in mg, m0 is initial mass, and t is time in minutes). The sample is then taken through the reverse of the stepwise % RH increase. The data are collected on a computer and analyzed using SMS′ proprietary MS-Excel macro interface software.

Turning to `CCCCC1(CCCC)CS(=O)(=O)c2ccc(N(C)C)cc2[C@@H](c2ccc(OCc3ccc(C[N+]45CCN(CC4)CC5)cc3)cc2)[C@H]1O.[Cl-]` [Form I, (4R,5R)-1-((4-(4-(3,3-dibutyl-7-(dimethylamino)-2,3,4,5-tetrahydro-4-hydroxy-1,1-dioxido-1-benzithiepin-5-yl)phenoxy)methyl)phenyl)methyl-4-aza-1-azoniabicyclo[2.2.2]octane Chloride], the “hygroscopicity (in words)” value was “hygroscopic”.
For the compound `CCCCC1(CCCC)CS(=O)(=O)c2ccc(N(C)C)cc2[C@@H](c2ccc(OCc3ccc(C[N+]45CCN(CC4)CC5)cc3)cc2)[C@H]1O.[Cl-]` [Form II, (4R,5R)-1-((4-(4-(3,3-dibutyl-7-(dimethylamino)-2,3,4,5-tetrahydro-4-hydroxy-1,1-dioxido-1-benzithiepin-5-yl)phenoxy)methyl)phenyl)methyl-4-aza-1-azoniabicyclo[2.2.2]octane Chloride], the “hygroscopicity (in words)” value was “essentially nonhygroscopic”. Where the note is “listed as form II”, the “hygroscopicity (in words)” value is reported as “essentially non-hygroscopic”. For the setting “dry sample, equilibrated under 80% relative humidity (RH) air at 25° C.”, the “weight gain of a dry sample (% of its own weight) when equilibrated under humid air” value is “less than 1%”.
